Results: PMC5908295 (Oncotarget, 2018)

Tests used:
[1] = system: MV-4-11 xenograft; assay: MV-4-11 xenograft, SEL24-B489 and AraC alone or combined; type: in vivo, mice; settings: MV-4-11, AraC alone 50 mg/kg three times weekly IP
Description: All animals were handled in strict accordance with good animal practice as defined by the relevant national and local animal welfare bodies. SCID and SCID/beige C.B-17 mice were provided by Harlan Laboratories or Charles River Laboratories, and were maintained in pathogen free conditions. For the xenograft experiments, age-matched (9-11 weeks old) females were used. 5×10^6 of MV-4-11 or MOLM-16 cells were suspended in a mixture (1:1, v:v) of PBS with Matrigel (BD Biosciences,) and injected subcutaneously (sc), in a total volume of 100 μL, above the groin on the right hind limb. For MOLM-13 and KG-1 cells, a mixture (3:1, v:v) of PBS and Matrigel HC (BD Bioscience,) was used to inject 5 × 10^6 of cell per mouse subcutaneously (sc), in a total volume of 100 μL. When tumors reached 100-130 mm^3, mice were randomized into uniform groups (6-9 mice per group) and subsequently administered the compound. […] At the end of the experiment, mice were anesthetized with isofluran and blood samples for total cell counts and biochemistry were obtained by retro-orbital bleeding. […] 5×10^6 cells suspended in a mixture (3:1, v:v) of PBS and Matrigel were injected as described above. […] Tumor volume was monitored every second day and calculated using the formula: TV = (a^2×b)/2, where “a” is the short axis in millimeters, and “b” is the long axis in millimeters. Body weight was assessed every day.

[2] = Blood biochemistry in mice with MV-4-11 tumors; type: in vivo; settings: Cytarabine 50 mg/kg, treatment day 15
Description: All animals were handled in strict accordance with good animal practice as defined by the relevant national and local animal welfare bodies. SCID and SCID/beige C.B-17 mice were provided by Harlan Laboratories or Charles River Laboratories, and were maintained in pathogen free conditions. For the xenograft experiments, age-matched (9-11 weeks old) females were used. 5×10^6 of MV-4-11 or MOLM-16 cells were suspended in a mixture (1:1, v:v) of PBS with Matrigel (BD Biosciences,) and injected subcutaneously (sc), in a total volume of 100 μL, above the groin on the right hind limb. For MOLM-13 and KG-1 cells, a mixture (3:1, v:v) of PBS and Matrigel HC (BD Bioscience,) was used to inject 5 × 10^6 of cell per mouse subcutaneously (sc), in a total volume of 100 μL. When tumors reached 100-130 mm^3, mice were randomized into uniform groups (6-9 mice per group) and subsequently administered the compound. […] At the end of the experiment, mice were anesthetized with isofluran and blood samples for total cell counts and biochemistry were obtained by retro-orbital bleeding. […] 5×10^6 cells suspended in a mixture (3:1, v:v) of PBS and Matrigel were injected as described above. When the tumor volume reached ~120 mm^3, mice were randomized into uniform groups (5 mice per group) and the compound then administered. […] Tumor volume was monitored every second day and calculated using the formula: TV = (a^2×b)/2, where “a” is the short axis in millimeters, and “b” is the long axis in millimeters. Body weight was assessed every day.
Supplementary Table 9: Related to Figure 5C. […] The assessment of
was performed on treatment day 15.
AST – Aspartate aminotransferase, ALT – Alanine transaminase, ALP – alkaline phosphatase, UREA – blood urea nitrogen,
CREA – Creatinine, CK – Creatine kinase, TP- total protein; ALB – Albumin. […]

[3] = Total blood cell counts in mice with MV-4-11 tumors; settings: Cytarabine 50 mg/kg, treatment day 15
Description: All animals were handled in strict accordance with good animal practice as defined by the relevant national and local animal welfare bodies. SCID and SCID/beige C.B-17 mice were provided by Harlan Laboratories or Charles River Laboratories, and were maintained in pathogen free conditions. For the xenograft experiments, age-matched (9-11 weeks old) females were used. 5×10^6 of MV-4-11 or MOLM-16 cells were suspended in a mixture (1:1, v:v) of PBS with Matrigel (BD Biosciences,) and injected subcutaneously (sc), in a total volume of 100 μL, above the groin on the right hind limb. For MOLM-13 and KG-1 cells, a mixture (3:1, v:v) of PBS and Matrigel HC (BD Bioscience,) was used to inject 5 × 10^6 of cell per mouse subcutaneously (sc), in a total volume of 100 μL. When tumors reached 100-130 mm^3, mice were randomized into uniform groups (6-9 mice per group) and subsequently administered the compound. […] At the end of the experiment, mice were anesthetized with isofluran and blood samples for total cell counts and biochemistry were obtained by retro-orbital bleeding. […] 5×10^6 cells suspended in a mixture (3:1, v:v) of PBS and Matrigel were injected as described above. When the tumor volume reached ~120 mm^3, mice were randomized into uniform groups (5 mice per group) and the compound then administered. […] Tumor volume was monitored every second day and calculated using the formula: TV = (a^2×b)/2, where “a” is the short axis in millimeters, and “b” is the long axis in millimeters. Body weight was assessed every day. […]
Supplementary Table 10: Related to Figure 5C. […] The assessment total
performed on treatment day 15.
RBC – red blood cells, HGB – hemoglobin, HCT – hematocrit, WBC – white blood cells, LYMPH – lymphocytes, MONO
– monocytes, GRA – granulocytes, PLT – platelet, MPV – mean platelet volume.

[4] = system: MV-4-11; assay: MTS viability assay, 72 h; settings: Homo sapiens, MV4-11, 72 h
Description: (§1) On the same day, 50 μL of medium containing tested inhibitor was added to the wells. Each compound was tested at 8 concentrations, in triplicates. As a negative control, the medium containing 0.1% DMSO was used. […] Staurosporine was used at 10 μM as a positive control. One the day of drug addition, basal signal from untreated cells was measured from in triplicate to determine time zero (T0). […] GI50 and LC50 values were extrapolated from a variable (four-parameter) dose-response curve fitted in GraphPad Prism.

[5] = system: MOLM-13; assay: MTS viability assay, 72 h; settings: Homo sapiens, MOLM-13, 72 h
Description: (§2) 15-25 ×10^3 of MV-4-11, MOLM-13, MOLM-14, MOLM-16, KG-1, Eol-1, SKM-1, PL-21, GDM-1, SKNO-1, RS4;11, Kasumi-3 and Kasumi-6 cells were seeded in 150 μL of culture medium onto individual wells in a 96 well plates, in triplicates. On the same day, 50 μL of medium containing tested inhibitor was added to the wells. Each compound was tested at 8 concentrations, in triplicates. As a negative control, the medium containing 0.1% DMSO was used. […] Staurosporine was used at 10 μM as a positive control. One the day of drug addition, basal signal from untreated cells was measured from in triplicate to determine time zero (T0). […] GI50 and LC50 values were extrapolated from a variable (four-parameter) dose-response curve fitted in GraphPad Prism.

[6] = system: MOLM-14; assay: MTS viability assay, 72 h; settings: Homo sapiens, MOLM-14, 72 h
Description: as §2

[7] = system: MOLM-16; assay: MTS viability assay, 72 h; settings: MOLM16, 72 h
Description: as §1

[8] = system: KG-1; assay: MTS viability assay, 72 h; settings: Homo sapiens, KG-1, 72 h
Description: as §2

[9] = system: EOL-1; assay: MTS viability assay, 72 h; settings: Homo sapiens, EOL1, 72 h
Description: as §2

[10] = system: KASUMI-3; assay: MTS viability assay, 72 h; settings: Kasumi-3, 72 h
Description: as §2

[11] = system: KASUMI-6; assay: MTS viability assay, 72 h; settings: 72 h
Description: as §2

[12] = system: OCI-AML-2; assay: MTS viability assay, 72 h; settings: Homo sapiens, OCI-AML2, 72 h
Description: as §1

[13] = system: OCI-AML-3; assay: MTS viability assay, 72 h; settings: Homo sapiens, OCI-AML-3, 72 h
Description: as §2

[14] = system: MOLM-6; assay: MTS viability assay, 72 h; settings: 72 h
Description: as §2

[15] = system: RS4;11; assay: MTS viability assay, 72 h; settings: Homo sapiens, RS4-11, 72 h
Description: as §2

[16] = system: SKNO-1; assay: MTS viability assay, 72 h; settings: SKNO-1, 72 h
Description: as §2

[17] = system: SKM-1; assay: MTS viability assay, 72 h; settings: Homo sapiens, SKM-1, 72 h
Description: as §1

[18] = system: SIG-M5; assay: MTS viability assay, 72 h; settings: Homo sapiens, SIG-M5, 72 h
Description: as §1

[19] = system: GDM-1; assay: MTS viability assay, 72 h; settings: Homo sapiens, GDM-1, 72 h
Description: as §2

[20] = system: PL-21; assay: MTS viability assay, 72 h; settings: PL-21, 72 h
Description: as §2

[21] = parameters: method as in PMID 21628411, PMID 24953177; settings: off-target inhibition of the potassium channel hERG; cited from earlier work

SMILES: Nc1ccn([C@@H]2O[C@H](CO)[C@@H](O)[C@@H]2O)c(=O)n1 [Cytarabine]
- decrease of tumor growth [1]: 66%
- ALB [2]: 4.6 g/dL
- ALP [2]: 87.6 U/L
- ALT [2]: 153.7 U/L
- AST [2]: 247.1 U/L
- CK [2]: 1709 U/L
- CREA [2]: 0.37 mg/dL
- K [2]: 5.4 mM
- TP [2]: 4.6 g/dL
- UREA [2]: 5.9 mmol/L
- GRA [3]: 51.9%
- HCT [3]: 49.5%
- HGB [3]: 14.4 g/dL
- LYMPH [3]: 37.7%
- MONO [3]: 10.3%
- MPV [3]: 5.9 μm3
- PLT [3]: 1098 103/mm3
- RBC [3]: 9.9 106/mm3
- WBC [3]: 5.0 103/mm3
- GI50 [4]: 340 nM
- CC50 ([4]; read-out: LC50): > 10000 nM
- GI50 [5]: < 5 nM
- CC50 ([5]; read-out: LC50): > 10000 nM
- GI50 [6]: 48 nM
- CC50 ([6]; read-out: LC50): > 10000 nM
- GI50 [7]: 22 nM
- CC50 ([7]; read-out: LC50): > 10000 nM
- GI50 [8]: 12 nM
- CC50 ([8]; read-out: LC50): 71 nM
- GI50 [9]: 24 nM
- GI50 [10]: < 5 nM
- CC50 ([10]; read-out: LC50): 28 nM
- GI50 [11]: < 5 nM
- GI50 [12]: < 5 nM
- CC50 ([12]; read-out: LC50): 21 nM
- GI50 [13]: 81 nM
- CC50 ([13]; read-out: LC50): > 10000 nM
- GI50 [14]: 30 nM
- CC50 ([14]; read-out: LC50): > 10000 nM
- GI50 [15]: < 5 nM
- CC50 ([15]; read-out: LC50): 23 nM
- GI50 [16]: < 5 nM
- GI50 [17]: 28 nM
- CC50 ([17]; read-out: LC50): 6460 nM
- GI50 [18]: 46 nM
- CC50 ([18]; read-out: LC50): > 10000 nM
- GI50 [19]: < 5 nM
- GI50 [20]: < 5 nM

SMILES: CN1CCC(CNc2ccc3ncc(-c4cccc(OC(F)(F)F)c4)n3n2)CC1 [SGI-1776]
- outcome of clinical testing [21]: failed clinical testing due to a narrow therapeutic window and cardiac toxicity
